Each structure is given as a SMILES string. Where two headings read alike, the source gives them in different places.

For this assay, the system named is HCV 1b genotype. In words: HCV replicon assay (HCV-neo replicon cells, wild-type). The assay is classed as cell-based, Hepatitis C virus. To be noted: HCV 1b genotype replicon, class symbols, read-out: EC50 Range against HCV 1b. The method in brief:
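HCV-neo replicon cells (wild-type) and replicon cells carrying NS5A resistance substitutions were treated with compounds; assay per O'Boyle et al. 2005, with luciferase-reporter read-out variants also used.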
In general terms: A replicon is a self-replicating genome or part of one, used to study replication in cells.

Consider `O=C(Nc1ccc(-c2cnc(-c3ccc(NC(=O)[C@@H]4C[C@@H](O)CN4C(=O)C4CC4)cc3)o2)cc1)[C@@H]1C[C@@H](O)CN1C(=O)C1CC1` [XY-57, (2S,4R,2′S,4′R)-N,N′-(1,3-oxazole-2,5-diyldi-4,1-phenylene)bis(1-(cyclopropylcarbonyl)-4-hydroxy-2-pyrrolidinecarboxamide)], for which the EC50 – broadly, the concentration giving half of the maximal effect – (Hepatitis C virus) is 1000 to 10000 nM.

For the compound `O=C(Nc1ccc(-c2cnc(-c3ccc(NC(=O)[C@@H]4C[C@@H](O)CN4C(=O)Cc4ccccn4)cc3)o2)cc1)[C@@H]1C[C@@H](O)CN1C(=O)Cc1ccccn1` [XY-58, (2S,4R,2′S,4′R)-N,N′-(1,3-oxazole-2,5-diyldi-4,1-phenylene)bis(4-hydroxy-1-(2-pyridinylacetyl)-2-pyrrolidinecarboxamide)], the EC50 lay within 100 to 999 nM.

In the case of `CC(C)(C)O[C@@H]1C[C@@H](C(=O)Nc2ccc(-c3cnc(-c4ccc(NC(=O)[C@@H]5C[C@@H](OC(C)(C)C)CN5C(=O)OCc5ccccc5)cc4)o3)cc2)N(C(=O)OCc2ccccc2)C1` [XY-59, dibenzyl (2S,4R,2′S,4′R)-2,2′-(1,3-oxazole-2,5-diylbis(4,1-phenylenecarbamoyl))bis(4-tert-butoxy-1-pyrrolidinecarboxylate)], the half-maximal effective concentration (EC50) (Hepatitis C virus) is 1000 to 10000 nM.

`CC(C)(C)O[C@H]1CN[C@H](C(=O)Nc2ccc(-c3cnc(-c4ccc(NC(=O)[C@@H]5C[C@@H](OC(C)(C)C)CN5)cc4)o3)cc2)C1` [XY-60, (2S,4R,2′S,4′R)-N,N′-(1,3-oxazole-2,5-diyldi-4,1-phenylene)bis(4-tert-butoxy-2-pyrrolidinecarboxamide)]: the EC50 (Hepatitis C virus) lay in the range of 1000 to 10000 nM.

Consider `CC(C)(C)O[C@@H]1C[C@@H](C(=O)Nc2ccc(-c3cnc(-c4ccc(NC(=O)[C@@H]5C[C@@H](OC(C)(C)C)CN5C(=O)CC5CC5)cc4)o3)cc2)N(C(=O)CC2CC2)C1` [XY-61, (2S,4R,2′S,4′R)-N,N′-(1,3-oxazole-2,5-diyldi-4,1-phenylene)bis(4-tert-butoxy-1-(cyclopropylacetyl)-2-pyrrolidinecarboxamide)], for which the EC50 (Hepatitis C virus) lay in the range of 100 to 999 nM.

On to `CC(C)(C)O[C@@H]1C[C@@H](C(=O)Nc2ccc(-c3cnc(-c4ccc(NC(=O)[C@@H]5C[C@@H](OC(C)(C)C)CN5C(=O)Cc5cccnc5)cc4)o3)cc2)N(C(=O)Cc2cccnc2)C1` [XY-62, (2S,4R,2′S,4′R)-N,N′-(1,3-oxazole-2,5-diyldi-4,1-phenylene)bis(4-tert-butoxy-1-(3-pyridinylacetyl)-2-pyrrolidinecarboxamide)], for which the EC50 (Hepatitis C virus) lay in the range of 4.57 to 99 nM.

`CC(C)(C)O[C@@H]1C[C@@H](C(=O)Nc2ccc(-c3cnc(-c4ccc(NC(=O)[C@@H]5C[C@@H](OC(C)(C)C)CN5C(=O)C(C)(C)C)cc4)o3)cc2)N(C(=O)C(C)(C)C)C1` [XY-63, (2S,4R,2′S,4′R)-N,N′-(1,3-oxazole-2,5-diyldi-4,1-phenylene)bis(4-tert-butoxy-1-(2,2-dimethylpropanoyl)-2-pyrrolidinecarboxamide)]: the EC50 (Hepatitis C virus) is 100 to 999 nM.

With `CC(C)(C)O[C@@H]1C[C@@H](C(=O)Nc2ccc(-c3cnc(-c4ccc(NC(=O)[C@@H]5C[C@@H](OC(C)(C)C)CN5C(=O)C5CCC5)cc4)o3)cc2)N(C(=O)C2CCC2)C1` [XY-64, (2S,4R,2′S,4′R)-N,N′-(1,3-oxazole-2,5-diyldi-4,1-phenylene)bis(4-tert-butoxy-1-(cyclobutylcarbonyl)-2-pyrrolidinecarboxamide)], the EC50 (Hepatitis C virus) fell in the range of 1000 to 10000 nM.

For the compound `CCc1ccccc1C(=O)N1C[C@H](OC(C)(C)C)C[C@H]1C(=O)Nc1ccc(-c2cnc(-c3ccc(NC(=O)[C@@H]4C[C@@H](OC(C)(C)C)CN4C(=O)c4ccccc4CC)cc3)o2)cc1` [XY-65, (2S,4R,2′S,4′R)-N,N′-(1,3-oxazole-2,5-diyldi-4,1-phenylene)bis(4-tert-butoxy-1-(2-ethylbenzoyl)-2-pyrrolidinecarboxamide)], the EC50 (Hepatitis C virus) fell in the range of 1000 to 10000 nM.

Regarding `CC(C)(C)O[C@@H]1C[C@@H](C(=O)Nc2ccc(-c3cnc(-c4ccc(NC(=O)[C@@H]5C[C@@H](OC(C)(C)C)CN5C(=O)C5CCCCC5)cc4)o3)cc2)N(C(=O)C2CCCCC2)C1` [XY-66, (2S,4R,2′S,4′R)-N,N′-(1,3-oxazole-2,5-diyldi-4,1-phenylene)bis(4-tert-butoxy-1-(cyclohexylcarbonyl)-2-pyrrolidinecarboxamide)], the concentration for a half-maximal effect (EC50) (Hepatitis C virus) fell in the range of 1000 to 10000 nM.

With `COC(C(=O)N1C[C@H](OC(C)(C)C)C[C@H]1C(=O)Nc1ccc(-c2cnc(-c3ccc(NC(=O)[C@@H]4C[C@@H](OC(C)(C)C)CN4C(=O)C(OC)c4ccccc4)cc3)o2)cc1)c1ccccc1` (stereo partly drawn) [XY-67, (2S,4R,2′S,4′R)-N,N′-(1,3-oxazole-2,5-diyldi-4,1-phenylene)bis(4-tert-butoxy-1-(methoxy(phenyl)acetyl)-2-pyrrolidinecarboxamide)], the EC50 (Hepatitis C virus) was in the range of 4.57 to 99 nM.

In the case of `CC(C)(C)O[C@@H]1C[C@@H](C(=O)Nc2ccc(-c3cnc(-c4ccc(NC(=O)[C@@H]5C[C@@H](OC(C)(C)C)CN5C(=O)[C@H]5CCCO5)cc4)o3)cc2)N(C(=O)[C@H]2CCCO2)C1` [XY-68, (2S,4R,2′S,4′R)-N,N′-(1,3-oxazole-2,5-diyldi-4,1-phenylene)bis(4-tert-butoxy-1-((2R)-tetrahydro-2-furanylcarbonyl)-2-pyrrolidinecarboxamide)], for the setting “Hepatitis C virus”, the EC50 was in the range of 100 to 999 nM.

On to `Cc1cccc(CC(=O)N2C[C@H](OC(C)(C)C)C[C@H]2C(=O)Nc2ccc(-c3cnc(-c4ccc(NC(=O)[C@@H]5C[C@@H](OC(C)(C)C)CN5C(=O)Cc5cccc(C)c5)cc4)o3)cc2)c1` [XY-69, (2S,4R,2′S,4′R)-N,N′-(1,3-oxazole-2,5-diyldi-4,1-phenylene)bis(4-tert-butoxy-1-((3-methylphenyl)acetyl)-2-pyrrolidinecarboxamide)], for which the EC50 (Hepatitis C virus) was 100 to 999 nM.

As for `Cc1cc(CC(=O)N2C[C@H](OC(C)(C)C)C[C@H]2C(=O)Nc2ccc(-c3cnc(-c4ccc(NC(=O)[C@@H]5C[C@@H](OC(C)(C)C)CN5C(=O)Cc5cc(C)no5)cc4)o3)cc2)on1` [XY-70, (2S,4R,2′S,4′R)-N,N′-(1,3-oxazole-2,5-diyldi-4,1-phenylene)bis(4-tert-butoxy-1-((3-methyl-5-isoxazolyl)acetyl)-2-pyrrolidinecarboxamide)], the EC50 (Hepatitis C virus) was in the range of 4.57 to 99 nM.

`Cn1cccc1C(=O)N1C[C@H](OC(C)(C)C)C[C@H]1C(=O)Nc1ccc(-c2cnc(-c3ccc(NC(=O)[C@@H]4C[C@@H](OC(C)(C)C)CN4C(=O)c4cccn4C)cc3)o2)cc1` [XY-71, (2S,4R,2′S,4′R)-N,N′-(1,3-oxazole-2,5-diyldi-4,1-phenylene)bis(4-tert-butoxy-1-((1-methyl-1H-pyrrol-2-yl)carbonyl)-2-pyrrolidinecarboxamide)]: the concentration for a half-maximal effect (EC50) (Hepatitis C virus) lay within 1000 to 10000 nM.

In the case of `Cc1noc(C)c1C(=O)N1C[C@H](OC(C)(C)C)C[C@H]1C(=O)Nc1ccc(-c2cnc(-c3ccc(NC(=O)[C@@H]4C[C@@H](OC(C)(C)C)CN4C(=O)c4c(C)noc4C)cc3)o2)cc1` [XY-72, (2S,4R,2′S,4′R)-N,N′-(1,3-oxazole-2,5-diyldi-4,1-phenylene)bis(4-tert-butoxy-1-((3,5-dimethyl-4-isoxazolyl)carbonyl)-2-pyrrolidinecarboxamide)], the concentration giving a half-maximal response (EC50) (Hepatitis C virus) was 100 to 999 nM.

With `CC(C)(C)O[C@@H]1C[C@@H](C(=O)Nc2ccc(-c3cnc(-c4ccc(NC(=O)[C@@H]5C[C@@H](OC(C)(C)C)CN5C(=O)c5ccccc5)cc4)o3)cc2)N(C(=O)c2ccccc2)C1` [XY-73, (2S,4R,2′S,4′R)-N,N′-(1,3-oxazole-2,5-diyldi-4,1-phenylene)bis(1-benzoyl-4-tert-butoxy-2-pyrrolidinecarboxamide)], the EC50 (Hepatitis C virus) is 1000 to 10000 nM.

With `CC(C)(C)O[C@@H]1C[C@@H](C(=O)Nc2ccc(-c3cnc(-c4ccc(NC(=O)[C@@H]5C[C@@H](OC(C)(C)C)CN5C(=O)C5CC5)cc4)o3)cc2)N(C(=O)C2CC2)C1` [XY-74, (2S,4R,2′S,4′R)-N,N′-(1,3-oxazole-2,5-diyldi-4,1-phenylene)bis(4-tert-butoxy-1-(cyclopropylcarbonyl)-2-pyrrolidinecarboxamide)], the EC50 (Hepatitis C virus) was 100 to 999 nM.

Turning to `CC(C)(C)O[C@@H]1C[C@@H](C(=O)Nc2ccc(-c3cnc(-c4ccc(NC(=O)[C@@H]5C[C@@H](OC(C)(C)C)CN5C(=O)Cc5ccccn5)cc4)o3)cc2)N(C(=O)Cc2ccccn2)C1` [XY-75, (2S,4R,2′S,4′R)-N,N′-(1,3-oxazole-2,5-diyldi-4,1-phenylene)bis(4-tert-butoxy-1-(2-pyridinylacetyl)-2-pyrrolidinecarboxamide)], the EC50 is 4.57 to 99 nM.

In the case of `CC(C)(C)O[C@@H]1C[C@@H](C(=O)Nc2ccc(-c3cnc(-c4ccc(NC(=O)[C@@H]5C[C@@H](OC(C)(C)C)CN5C(=O)c5cccs5)cc4)o3)cc2)N(C(=O)c2cccs2)C1` [XY-76, (2S,4R,2′S,4′R)-N,N′-(1,3-oxazole-2,5-diyldi-4,1-phenylene)bis(4-tert-butoxy-1-(2-thienylcarbonyl)-2-pyrrolidinecarboxamide)], the EC50 (Hepatitis C virus) is 1000 to 10000 nM.

In the case of `COc1cccc(CC(=O)N2C[C@H](OC(C)(C)C)C[C@H]2C(=O)Nc2ccc(-c3cnc(-c4ccc(NC(=O)[C@@H]5C[C@@H](OC(C)(C)C)CN5C(=O)Cc5cccc(OC)c5)cc4)o3)cc2)c1` [XY-77, (2S,4R,2′S,4′R)-N,N′-(1,3-oxazole-2,5-diyldi-4,1-phenylene)bis(4-tert-butoxy-1-((3-methoxyphenyl)acetyl)-2-pyrrolidinecarboxamide)], the EC50 (Hepatitis C virus) lay in the range of 100 to 999 nM.

The values above are taken from US8735398B2 (Bristol-Myers Squibb Company, priority 2009, dated 2014).
